Calls of active or inactive are those of the source. The calls are words filed in the database; no cut-off is given here.
Tests used:
Assay type in all cases: functional, cell-based
[1] = system: Glutamate receptor ionotropic, kainate 2 (Homo sapiens), Q13002 [L439C]; assay: Agonist activity at MAG conjugated light activated iGluR6 L439C mutant expressed in human HEK293 cells assessed as increase inward currents by whole cell patch clamp method
[2] = system: Glutamate receptor ionotropic, kainate 2 (Homo sapiens), Q13002 [L439C]; assay: Agonist activity at iGluR6 L439C mutant expressed in human HEK293 cells assessed as increase in intracellular Ca2+ levels illuminated at 500 nm wavelength by […] staining based fluorimetric method
[3] = system: Glutamate receptor ionotropic, kainate 2 (Homo sapiens), Q13002 [L439C]; assay: Agonist activity at iGluR6 L439C mutant expressed in human HEK293 cells assessed as increase in intracellular Ca2+ levels illuminated at 380 nm wavelength by […] staining based fluorimetric method

Chain of Glutamate receptor ionotropic, kainate 2 (Homo sapiens), Q13002 [L439C] (Q13002 whole entry L439C): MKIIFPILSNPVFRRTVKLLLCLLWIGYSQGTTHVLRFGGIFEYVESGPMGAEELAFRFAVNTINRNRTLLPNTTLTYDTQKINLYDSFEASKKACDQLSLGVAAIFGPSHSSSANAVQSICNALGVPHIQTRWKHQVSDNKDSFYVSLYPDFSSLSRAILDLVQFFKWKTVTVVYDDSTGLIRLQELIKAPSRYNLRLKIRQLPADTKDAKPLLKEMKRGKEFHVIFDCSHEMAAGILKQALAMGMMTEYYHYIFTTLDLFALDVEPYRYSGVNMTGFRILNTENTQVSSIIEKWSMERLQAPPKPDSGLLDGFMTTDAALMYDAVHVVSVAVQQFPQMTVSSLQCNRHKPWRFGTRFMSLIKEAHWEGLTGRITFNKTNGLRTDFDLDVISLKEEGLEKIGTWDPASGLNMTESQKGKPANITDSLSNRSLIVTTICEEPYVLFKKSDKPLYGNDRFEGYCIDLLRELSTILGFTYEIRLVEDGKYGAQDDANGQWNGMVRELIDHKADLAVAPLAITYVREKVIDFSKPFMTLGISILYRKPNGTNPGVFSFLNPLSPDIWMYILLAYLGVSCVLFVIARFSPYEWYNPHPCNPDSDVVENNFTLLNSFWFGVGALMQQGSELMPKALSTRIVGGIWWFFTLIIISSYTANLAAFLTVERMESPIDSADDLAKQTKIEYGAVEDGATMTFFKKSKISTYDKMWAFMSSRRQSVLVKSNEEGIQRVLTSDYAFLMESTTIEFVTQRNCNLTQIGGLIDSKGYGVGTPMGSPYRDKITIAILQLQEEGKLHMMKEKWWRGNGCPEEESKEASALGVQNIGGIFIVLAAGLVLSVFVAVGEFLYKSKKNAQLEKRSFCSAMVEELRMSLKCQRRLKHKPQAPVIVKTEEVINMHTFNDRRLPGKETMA

With `N[C@@H](C[C@@H](CCCC(=O)NCC(=O)Nc1ccccc1)C(=O)O)C(=O)O` the Activity [1] was “Active”.

For `N[C@@H](CCC(=O)O)C(=O)O`, the Activity [1] was “Active”.

In the case of `N[C@@H](C[C@@H](CCCC(=O)NCC(=O)Nc1ccc(/N=N/c2ccc(NC(=O)CN3C(=O)C=CC3=O)cc2)cc1)C(=O)O)C(=O)O`, the Activity [2] was “inactive” and the Activity [3] was “Active”.

Source: ChEMBL document CHEMBL1221178, “Allosteric control of an ionotropic glutamate receptor with an optical switch” (Nat Chem Biol, 2006)
